The results in this text go back to patent US7449461B2, “Benzathiazol-acetamides” (Hoffmann-La Roche Inc., priority 2004, dated 2008).

The target of data set [1] is T1, human adenosine A2A receptor (Homo sapiens, UniProt P29274).
T1 construct: expressed in transfected cells; host or cells: CHO cells, Semliki Forest virus expression system; washed membrane preparation
Kind of data set: [3H]-SCH-58261 binding assay on human adenosine A2A receptor membranes (SPA). The conditions noted are these: recombinant receptor expressed in CHO cells, radioligand [3H]-SCH-58261 1 nM, Ki by Cheng-Prussoff equation from IC50; for Ki: read-out: hA2 (pKi) (converted). As for the experimental part: Human Adenosine A2A Receptor
The human adenosine A2A receptor was recombinantly expressed in Chinese hamster ovary (CHO) cells using the semliki forest virus expression system. Cells were harvested, washed twice by centrifugation, homogenized and again washed by centrifugation. The final washed membrane pellet was suspended in a Tris (50 mM) buffer containing 120 mM NaCl, 5 mM KCl, 2 mM CaCl2 and 10 mM MgCl2 (pH 7.4) (buffer A). The [^3H]-SCH-58261 (Dionisotti et al., 1997, Br J Pharmacol 121, 353; 1 nM) binding assay was carried out in 96-well plates in the presence of 2.5 μg of membrane protein, 0.5 mg of Ysi-poly-1-lysine SPA beads and 0.1 U adenosine deaminase in a final volume of 200 μl of buffer A. Non-specific binding was defined using xanthine amine congener (XAC; 2 μM). Compounds were tested at 10 concentrations from 10 μM-0.3 nM. All assays were conducted in duplicate and repeated at least two times. Assay plates were incubated for 1 hour at room temperature before centrifugation and then bound ligand determined using a Packard Topcount scintillation counter. IC50 values were calculated using a non-linear curve fitting program and Ki values calculated using the Cheng-Prussoff equation.

T1 sequence (P29274 whole entry): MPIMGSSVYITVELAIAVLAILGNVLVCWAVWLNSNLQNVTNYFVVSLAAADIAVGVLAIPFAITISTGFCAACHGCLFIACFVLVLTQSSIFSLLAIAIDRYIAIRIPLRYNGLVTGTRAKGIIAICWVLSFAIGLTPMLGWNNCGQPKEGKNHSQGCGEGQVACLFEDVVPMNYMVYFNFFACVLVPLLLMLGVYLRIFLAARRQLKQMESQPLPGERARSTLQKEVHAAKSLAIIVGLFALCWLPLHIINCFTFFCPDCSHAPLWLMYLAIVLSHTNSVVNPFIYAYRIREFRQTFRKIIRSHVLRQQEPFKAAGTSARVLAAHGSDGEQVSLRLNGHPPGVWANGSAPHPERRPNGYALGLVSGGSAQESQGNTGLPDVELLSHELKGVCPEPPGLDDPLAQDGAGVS

For orientation: melting point means the temperature, or range, at which the solid turns liquid. Turning to `COc1ccc(N2CCOCC2)c2sc(NC(=O)C[C@H]3CC[C@H](O)CC3)nc12` [Example 6, (trans)-2-(4-Hydroxy-cyclohexyl)-N-(4-methoxy-7-morpholin-4-yl-benzothiazol-2-yl)-acetamide], the melting point is 190 to 192 °C. The Ki in data set [1] was 3.16 nM.

In the case of `COc1ccc(N2CCOCC2)c2sc(NC(=O)C[C@H]3CC[C@@H](O)C3)nc12` (single isomer, unassigned) [Example 3, (−)-(cis)-2-(3-Hydroxy-cyclopentyl)-N-(4-methoxy-7-morpholin-4-yl-benzothiazol-2-yl)-acetamide], the melting point lay within 168 to 171 °C. Also, the Ki in data set [1] is 6.31 nM.

Regarding `COc1ccc(N2CCOCC2)c2sc(NC(=O)C[C@H]3CC[C@@H](OC(C)=O)C3)nc12` (single isomer, unassigned) [Example 1, (cis)-2-(3-Acetoxy-cyclopentyl)-N-(4-methoxy-7-morpholin-4-yl-benzothiazol-2-yl)-acetamide], the melting point lay in the range of 171 to 172 °C. For the same molecule, the Ki in data set [1] is 10 nM.

Molecule `COc1ccc(N2CCOCC2)c2sc(NC(=O)C[C@H]3CC[C@@H](O)CC3)nc12` [Example 5, (cis)-2-(4-Hydroxy-cyclohexyl)-N-(4-methoxy-7-morpholin-4-yl-benzothiazol-2-yl)-acetamide] showed a melting point of 212 to 216 °C. Also, the Ki in data set [1] was 6.31 nM.

`COc1ccc(N2CCOCC2)c2sc(NC(=O)C[C@H]3CC[C@@H](O)C3)nc12` (single isomer, unassigned) [Example 4, (+)-(cis)-2-(3-Hydroxy-cyclopentyl)-N-(4-methoxy-7-morpholin-4-yl-benzothiazol-2-yl)-acetamide] yielded a melting point of 167 to 170 °C. For the same molecule, the “hA2 (pKi)” value in data set [1] came to 8.2.

In turn, `COc1ccc(N2CCOCC2)c2sc(NC(=O)C(C)C34CCC(CC3)O4)nc12` (racemic) [Example 7, (rac)-N-(4-Methoxy-7-morpholin-4-yl-benzothiazol-2-yl)-2-(7-oxa-bicyclo[2.2.1]hept-1-yl)-propionamide] came in with a melting point of 195 to 197 °C. The Ki in data set [1] was 20 nM.

Regarding `COc1ccc(N2CCOCC2)c2sc(NC(=O)C[C@H]3CC[C@@H](OC(C)=O)C3)nc12` (single isomer, unassigned) [Example 2, (cis)-2-(3-Acetoxy-cyclopentyl)-N-(4-methoxy-7-morpholin-4-yl-benzothiazol-2-yl)-acetamide], the melting point was in the range of 172 to 173 °C. In data set [1], the Ki is 6.31 nM.
